Assay results reported in patent US20220160651A1, “RAPIDLY IMPROVING ENDOTHELIAL FUNCTION, REDUCING ARTERIAL STIFFNESS AND REVERSING CALCIFICATION OF BLOOD VESSELS BY ADMINISTERING VITAMIN K” (KAYDENCE PHARMA AS, priority 2019, published 2022).
Where “and” joins values, the source holds several entries; their conditions need not be identical. Equal values may be shown once.

Test system: ApoE/LDLR−/− mice
Assay: MRI-based assessment of NO-dependent vasodilatation in BCA and LCA after acetylcholine (Example 2)
Type: in vivo
Conditions: two months, 25 min after Ach
Protocol: The effects of low-doses (0.03 mg/kg b.w./day) as well as high-doses (10 mg/kg b.w./day) of vitamin K2 (MK-7), on endothelial function in mice with pre-established atherosclerosis was assessed. The mice were treated with K2 (MK-7) for two months and endothelial function was analyzed in vivo based on functional study (MRI based assessment of NO-dependent vasodilation) as well as by biochemical analysis (plasma nitrate and nitrite concentration). In addition, a comprehensive qualitative and quantitative histological analysis of the effects of K2 (MK-7) on vascular wall structure and atherosclerosis plaque composition was performed.
Endpoint assays: Magnetic resonance imaging (MRI)-based assessment of nitric oxide (NO)-dependent vasodilatation in brachiocephalic (BCA) and left common carotid artery (LCA) after acetylcholine (Ach) administration—by MRI 9.4T scanner, total time of measurements: 114 h (1.5 h per animal), acetylcholine (Ach, 16.6 mg/kg b.w.)
Studies were performed on 4-month old female ApoE/LDLR−/− mice, the model initially described by Ishibashi S, Herz J, Maeda N, Goldstein J, Brown M. The two-receptor model of lipoprotein clearance: tests of the hypothesis in “knockout” mice lacking the low density lipoprotein receptor, apolipoprotein E, or both proteins. Proc Natl Acad Sci USA 1994; 10:4431-5., and extensively characterized in previous studies, [see Kostogrys RB, Franczyk-Zarow M, Gasior-Glogowska M, Kus E, Jasztal A, Wrobel T P, et al. Anti-atherosclerotic effects of pravastatin in brachiocephalic artery in comparison with en face aorta and aortic roots in ApoE/LDLR−/− mice. Pharmacol Reports 2017; 69:112-8. doi:10.1016/j.pharep.2016.09.014; Tyrankiewicz U, Skorka T, Orzylowska A, Jablonska M, Jasinski K, Jasztal A, et al. Comprehensive MRI for the detection of subtle alterations in diastolic cardiac function in apoE/LDLR −/− mice with advanced atherosclerosis. […] End-diastolic volumes of BCA and LCA were analyzed using ImageJ software (1.46r NIH Bethesda, Md., USA) and scripts written in Matlab (MathWorks, Natick, Mass., USA) (FIG. 1A).

Question: Which “vessel volume change of BCA after Ach injection” value (high dose 10 mg/kg b.w./day) does the source give for `CC(C)=CCC/C(C)=C/CC/C(C)=C/CC/C(C)=C/CC/C(C)=C/CC/C(C)=C/CC/C(C)=C/CC1=C(C)C(=O)c2ccccc2C1=O` [MK-7, menaquinone-7] here?
Answer: Its value is 3.12%.

Question: What about the “vessel volume change of LCA after Ach injection” value (high dose 10 mg/kg b.w./day) of the same compound?
Answer: The value was 4.45%.

Question: What about the “vessel volume change of LCA after Ach injection” value (low dose 0.03 mg/kg b.w./day, listed as vitamin MK-7, 0.03 mg/kg/day) of the same compound?
Answer: The value was ~−3% and −3.92%.
